What is called EC50 is the concentration that produces a half-maximal response. By Emax is commonly meant the size of the effect at its maximum, as opposed to the concentration needed.

The structures appear in SMILES notation. Where two headings read alike, the source gives them in different places.

The target in one data set is T1, human OX2R (Homo sapiens, UniProt O43614).
T1 sequence (O43614 1-444): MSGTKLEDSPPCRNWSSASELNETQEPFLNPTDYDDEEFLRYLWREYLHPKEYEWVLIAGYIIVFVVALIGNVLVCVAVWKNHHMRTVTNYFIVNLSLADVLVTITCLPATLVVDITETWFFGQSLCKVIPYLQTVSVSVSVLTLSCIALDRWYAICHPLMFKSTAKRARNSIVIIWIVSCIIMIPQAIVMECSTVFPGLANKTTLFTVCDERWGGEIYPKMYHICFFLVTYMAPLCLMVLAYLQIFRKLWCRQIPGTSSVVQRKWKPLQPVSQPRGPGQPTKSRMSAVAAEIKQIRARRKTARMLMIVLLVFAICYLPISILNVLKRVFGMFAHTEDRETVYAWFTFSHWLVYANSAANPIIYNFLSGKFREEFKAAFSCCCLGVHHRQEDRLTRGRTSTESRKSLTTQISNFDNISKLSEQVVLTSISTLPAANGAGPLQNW
Kind of data set: Calcium flux assay, OX2R agonistic activity. A general note: Calcium assays in cells follow changes in intracellular calcium, usually with a dye or a luminescent sensor.

For a further data set, the target named is T2, human OX1R (Homo sapiens, UniProt O43613).
T2 construct: expressed in transfected cells; host or cells: CHO-K1
T2 sequence (O43613 1-425): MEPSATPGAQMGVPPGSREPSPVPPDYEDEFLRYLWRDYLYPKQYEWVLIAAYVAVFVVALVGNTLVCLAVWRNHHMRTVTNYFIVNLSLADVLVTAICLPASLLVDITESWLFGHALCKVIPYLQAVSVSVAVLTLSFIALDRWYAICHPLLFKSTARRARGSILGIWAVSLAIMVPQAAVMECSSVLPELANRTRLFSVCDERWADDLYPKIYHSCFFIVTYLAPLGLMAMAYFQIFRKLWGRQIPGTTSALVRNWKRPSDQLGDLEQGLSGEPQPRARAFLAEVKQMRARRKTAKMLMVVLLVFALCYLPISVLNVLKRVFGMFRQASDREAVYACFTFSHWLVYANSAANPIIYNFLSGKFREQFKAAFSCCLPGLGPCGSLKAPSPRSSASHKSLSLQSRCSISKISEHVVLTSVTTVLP
Kind of data set: Calcium flux assay, OX1R agonistic activity. Type of data set: cell-based. As to conditions: CHO cells expressing human OX1R, 95% confidence intervals in brackets, duplicate measurements. Here is the method:
Calcium flux assay (in vitro agonistic activity of OX2R and OX1R)1 hOX1R/CHO -K1 cells and hOX2R/CHO-K1 cells suspended in Ham's F-12 medium (Fujifilm Wako Pure Chemical Co.) supplemented with 100 U/mL penicillin-streptomycin and 10% FBS […]
cells/well and in black-walled clear -bottomed 96-well plates (Corning) at 45000 cells/well, respectively. The plated cells were grown overnight at 37 °C in the presence of 5% CO2. The following day, the medium was removed, and the cells were incubated with assay buffer ( H BS S with 20mM HEPES, pH 7.4, and 0.1% fatty acid free BSA) containing 2.5 μg/mL Fluo- 4 AM […]
Laboratories), and 0.08% Pluronic F127 (Dojindo Laboratories) for 30 min at 37 °C in the presence of 5% CO2. After incubation, the cells were stimulated with test compounds in the assay buffer. Calcium mobilization was measured using an FDSS/μCELL (Hamamatsu Photonics […]
r epr esent the 0% and 100% responses, respectively.

In data set [1] the target is multidrug resistance protein 1 (MDR-1) (Homo sapiens, UniProt P08183). Kind of data set: Transcellular transport study using human MDR1-expressing LLC-PK1 cells. As to conditions: for MDR-1 ratio (directional transport ratio B to A/A to B): 10 μM test compound, 2 h.
Method: Transcellular transport study using a t ransporter- exp ressi on syst em
Human MDR1-expressing LLC -PK1 cells were cultured as reported previously with minor
modifications. 2 T he transcellular transport study was performed as reported previously.2 In brief,
the cells were grown for 7 days in an HTS Transwell 96 -well permeable support (pore size, 0.4
μm; sur f ace ar ea, 0. 143 cm2) with a polyethylene ter ephthalate membr ane ( Cor ning Lif e Sciences,
T he cells wer e pr eincubated with M199
at 37 °C for 30 min. Subsequently, transcellular transport was initiated by the addition of M199
either to apical compartments (75 μ L) or to the basolateral compartments (250 μ L) containing 10
μM digoxin, 200 μM lucifer yellow as a marker for the monolayer tightness, and 10 μM test
compounds and then terminated by the removal of each assay plate after 2 h. The aliquots (25
μL) in the opposite compartments were mixed with acetonitrile containing alprenolol an d
diclofenac as an internal standard and then centrifuged. The compound concentrations in the
supernatant were measured by LC− MS/MS. The apparent permeability (Pap p ) of test compounds
in the receiver wells was deter mined, and the efflux ratio for the MDR1 membrane permeability
test was calculated using the following equation:
Efflux ratio = Papp,BtoA/Papp,AtoB
wher e Papp,AtoB is the apical-to-ba sal passive permeability−sur f ace ar ea pr oduct and P app,BtoA is the
basal-to -apical pas sive per meability−sur f ace ar ea pr oduct.
Data set [2] in a line: Brain and plasma concentration after intraperitoneal administration in mice. As to conditions: 10 mg/kg ip; for concentration at 0.5 h / concentration at 1 h: n = 3. Type of data set: in vivo, C57BL/6J mice. As for the experimental part:
Brain and plasma concentration of compound 16 was measured after intraperitoneal administration at 10 mg/kg in mice (Table 5).
Measurem ent of plasm a and brain concent rat ion of compound 16 in mice The aliquots of the brain homogenate were mixed with acetonitrile containing internal standard.
The mixtures were centrifuged. The supernatants were diluted with solvents for LC-MS / MS (mobile phase A: 10 mM ammonium formate/formic acid (100/0.2, v/v), mobile phase B: acetonitrile/formic acid (100/0.2, v/v)). The diluted solutions were injected into LC-MS / MS (API5000, AB Sciex, CA) equipped with Shimadzu Shim-pack XR-ODS (2.2 μm, 2.0 × 30 mm, Shimadzu Corporation, Japan) at 50 °C. Analyst sof twar e T M ( ver sio n 1.4.2) was used for data acquisition and processing.
Ethics Statement. The care and use of the animals and the experimental protocols used in this research were approved by the Experimental Animal Care and Use Committee of Takeda Phar maceutical Company Limited.

The test system of the next data set is ICR mice. Kind of data set: Wakefulness time in ICR mice during the sleep phase (EEG/EMG). Type of data set: in vivo. As to conditions: sleep phase (ZT5), 3 mg/kg subcutaneous, n = 8, P < 0.001 vs vehicle. Here is the method: It has been reported that activation of the orexin system by intracerebroventricular injection of OX-A increases wakefulness in rodents.[20],[21] In this study, we assessed the effect of compound 16 on wakefulness time in ICR mice during the sleep phase based on the measurements of electroencephalogram and electromyogram.
Figure 5 Effect of compound 16 on wakefulness time in ICR mice during the sleep phase. Compound 16 at 3 mg/kg or vehicle was administered subcutaneously to ICR mice at zeitgeber time 5, and electroencephalograms and electromyograms were recorded. Analysis was performed with data collected during 3 h after drug administration. Data were presented as the mean + standard error of the mean (n = 8). ***P < 0.001, compared with the vehicle-treated mice (two-tailed paired t test).
Evaluation of wakefulness time m easu rem ent of compound 16 in m ice
I CR mice were obtained from CLEA Japan Inc. (Tokyo, Japan). M ice were housed in groups of 4 per cage in a light controlled room (12 h light/dark cycle with lights on at 07:00 h). Food and tap water were provided ad libitum . […] 1 Compound 16 at 3 mg/kg suspended in 0.5% methylcellulose saline was administered subcutaneously to mice at zeitgeber time 5 (ZT5) in a volume of 10 mL/kg body weight, and then EE G was recorded. […] The statistical significance between two groups was determined by paired t-test with significance set at P < 0.05. […]

The mark [3] stands for this setting: read-out: OX2R agonistic activity EC50, CHO cells expressing human OX2R, calcium flux, 95% confidence intervals in brackets, duplicate measurements.

For `CCS(=O)(=O)NC1CCCN(C(C)=O)C1COC1CCC(C(C)C)CC1` (stereo not drawn) [compound 2], the results for the EC50 on human OX2R (setting [3]) and at human OX1R were 0.57 µM and more than 100 µM, respectively. The maximal effect (Emax) at human OX2R (read-out: maximum response [Emax], OX2R agonism) was determined as 94%.
`CCNC(=O)N1CCC[C@H](NS(C)(=O)=O)[C@@H]1CO[C@H]1CC[C@@H](c2ccccc2)CC1` [compound 18]: the EC50 on human OX1R is 14 µM. Also, the “MDR-1 ratio (directional transport ratio B to A/A to B)” value (“MDR-1 ratio” below) in data set [1] turned out to be 4.8.
As for `CCOC(=O)N1CCC[C@H](NS(C)(=O)=O)[C@@H]1CO[C@H]1CC[C@@H](c2ccccc2)CC1` [compound 17], the EC50 at human OX2R (setting [3]) is 0.027 µM; on human OX1R, more than 100 µM. Moreover, in data set [1], the “MDR-1 ratio” value was 0.7.
Turning to `CCCS(=O)(=O)N[C@H]1CCCN(C(C)=O)[C@H]1CO[C@H]1CC[C@@H](C(C)C)CC1` [compound 9], the values for the half-maximal effective concentration (EC50) at human OX2R (setting [3]) and on human OX1R were 2.5 µM and more than 100 µM, respectively.
The corresponding values for `CC(=O)N1CCC[C@H](NS(=O)(=O)C(C)C)[C@@H]1CO[C@H]1CC[C@@H](C(C)C)CC1` [compound 8] are 0.94 µM and more than 100 µM.
In the case of `CCS(=O)(=O)N[C@H]1CCCN(C(C)=O)[C@H]1CO[C@H]1CC[C@@H](C(C)C)CC1` [compound 3], the EC50 is 0.27 µM at human OX2R (setting [3]) and more than 100 µM on human OX1R.
For the compound `CS(=O)(=O)N[C@H]1CCCN[C@H]1CO[C@H]1CC[C@@H](c2ccccc2)CC1` [compound 14], the half-maximal effective concentration (EC50) on human OX1R is more than 100 µM. The “MDR-1 ratio” value in data set [1] was 0.8.
As for `CCS(=O)(=O)N[C@H]1CCCN(C(C)=O)[C@H]1CO[C@H]1CC[C@H](C(C)C)CC1` [compound 5], the concentration for a half-maximal effect (EC50) on human OX2R (setting [3]) was more than 30 µM; at human OX1R it was more than 100 µM.
For the compound `CC(=O)N1CCC[C@H](N(C)S(C)(=O)=O)[C@@H]1CO[C@H]1CC[C@@H](C(C)C)CC1` [compound 10], the EC50 at human OX2R (setting [3]) is more than 30 µM; on human OX1R, more than 100 µM.
With `CC(=O)N[C@H]1CCCN(C(C)=O)[C@H]1CO[C@H]1CC[C@@H](C(C)C)CC1` (stereo in doubt) [compound 11], the figures for the EC50 at human OX2R and on human OX1R were more than 30 µM and more than 100 µM, respectively.
For `COC(=O)N1CCC[C@H](NS(C)(=O)=O)[C@@H]1CO[C@H]1CC[C@@H](c2ccccc2)CC1` [compound 16, methyl (2R,3S)-3-((methylsulfonyl)amino)-2-(((cis-4-phenylcyclohexyl)oxy)methyl)piperidine-1-carboxylate], the 50% effective concentration (EC50) was 0.0055 µM at human OX2R (setting [3]) and more than 100 µM at human OX1R. Moreover, in data set [2] (mice), the half-life in mice result is recorded as “short half-life”. Further, the Kp at 0.5 h in data set [2] (mouse, brain/plasma, C57BL/6J mice, 0.5 h, read-out: brain-to-plasma concn ratio) was 0.2. Besides, the Kp at 1 h in data set [2] (mouse, brain/plasma, C57BL/6J mice, 1 h, read-out: brain-to-plasma concn ratio) is 0.2. Moreover, the concentration at 0.5 h in data set [2] (mouse, brain, C57BL/6J mice, 0.5 h, read-out: brain concn) stood at 183 ng/g; in data set [2] (mouse, plasma, C57BL/6J mice, 0.5 h, read-out: plasma concn) it was 880 ng/mL. The concentration at 1 h is 63 ng/g in data set [2] (mouse, brain, C57BL/6J mice, 1 h, read-out: brain concn) and 288 ng/mL in data set [2] (mouse, plasma, C57BL/6J mice, 1 h, read-out: plasma concn). For the same compound, the “MDR-1 ratio” value in data set [1] was 0.8. Besides, the “MDR-1 transport A to B” value in data set [1] (apical to basal) worked out at 169. Moreover, the “total wakefulness time during 3 h after administration” value in the data set on ICR mice is on record as “significantly increased”.
With `CCS(=O)(=O)N[C@@H]1CCCN(C(C)=O)[C@H]1CO[C@H]1CC[C@@H](C(C)C)CC1` [compound 4], the EC50 at human OX2R (setting [3]) is more than 30 µM; on human OX1R, more than 100 µM.
In the case of `CC(=O)N1CCC[C@H](NS(C)(=O)=O)[C@@H]1CO[C@H]1CC[C@@H](C)CC1` (relative stereo) [compound 12], the concentration giving a half-maximal response (EC50) at human OX2R is 3.7 µM; at human OX1R, more than 100 µM.
As to `CCS(=O)(=O)N[C@@H]1CCCN(C(C)=O)[C@H]1CO[C@H]1CC[C@H](C(C)C)CC1` [compound 6], the 50% effective concentration (EC50) on human OX2R (setting [3]) was more than 30 µM; on human OX1R, more than 100 µM.
As for `CCC(=O)N1CCC[C@H](NS(C)(=O)=O)[C@@H]1CO[C@H]1CC[C@@H](c2ccccc2)CC1` [compound 15], the concentration for a half-maximal effect (EC50) at human OX2R (setting [3]) is 0.011 µM; on human OX1R it was more than 100 µM. The “MDR-1 ratio” value in data set [1] is reported as 2.2.
As for `CC(=O)N1CCC[C@H](NS(C)(=O)=O)[C@@H]1CO[C@H]1CC[C@@H](C(C)C)CC1` [compound 7], the EC50 is 0.33 µM at human OX2R (setting [3]) and more than 100 µM on human OX1R.

The record behind these values is publication PMC8919389, “Discovery of TAK-925 as a Potent, Selective, and Brain-Penetrant Orexin 2 Receptor Agonist” (ACS Medicinal Chemistry Letters, 2022).
